“And” between values parts separate entries of the source, which are not always exact repeats. Identical values can stand only once.

In the experiment the test system is MDA-MB-231 multicell spheroids, viability (%T/C). Put plainly: Anticancer human tumor MDA-MB-231 cell line growth inhibition [IpAb].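 On all read-outs here: viability read after seven days of drug exposure.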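 On viability, T/C: 100% = DMSO vehicle control viability.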 To be noted: for viability, T/C: stronger effect = lower value. The method in brief:
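Multi-cell spheroids of 60% tumour cells, 25% HUVEC and 15% MSC in ultra-low-attachment U-bottom wells, treated with agents combined with ipatasertib or abemaciclib. Half-log ranges top out near clinical Cmax, or 10 microM when Cmax is unknown.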

Where [1] appears, read: curve of first compound, second compound 0.1 µM.
[2] abbreviates: curve of first compound, second compound 0.316 µM.
Setting [3] is: curve of first compound, second compound 1 µM.
The mark [4] stands for this setting: second compound 0.1 µM, first compound 0.0316 µM.
Setting [5] is: second compound 0.1 µM, first compound 0.1 µM.
Setting [6] is: second compound 0.1 µM, first compound 0.316 µM.
[7] abbreviates: second compound 0.1 µM, first compound 1 µM.
[8] abbreviates: second compound 0.316 µM, first compound 0.0316 µM.
Setting [9] is: second compound 0.316 µM, first compound 0.1 µM.
Setting [10] is: second compound 0.316 µM, first compound 0.316 µM.
Where [11] appears, read: second compound 0.316 µM, first compound 1 µM.
The mark [12] stands for this setting: second compound 1 µM, first compound 0.0316 µM.
The mark [13] stands for this setting: second compound 1 µM, first compound 0.1 µM.
The mark [14] stands for this setting: second compound 1 µM, first compound 0.316 µM.
Setting [15] is: second compound 1 µM, first compound 1 µM.
[16] abbreviates: curve of first compound, second compound 3.16 µM.
Setting [17] is: curve of first compound, second compound 10 µM.

For orientation: IC50 means the point on the concentration scale where inhibition reaches its midpoint. As a reminder, the viability, T/C is the result in the treated group divided by that in the control group, in per cent. Take `COc1c(OCCCN2CCOCC2)ccc2c3n(c(=NC(=O)c4cnc(N)nc4)nc12)CCN3` + CCN1CCN(Cc2ccc(Nc3ncc(F)c(-c4cc(F)c5nc(C)n(C(C)C)c5c4)n3)nc2)CC1: the IC50 was 0.024 µM (curve of first compound, second compound 0.01 µM); 0.0146 µM (curve of first compound, second compound 0.0316 µM); 0.00468 µM under setting [1]; below 0.00316 µM under setting [2]; below 0.00316 µM under setting [3]. For the same compound, the viability, T/C was 81.7% (second compound 0.01 µM, first compound 0.00316 µM); 59% (second compound 0.01 µM, first compound 0.01 µM); 50.2% (second compound 0.01 µM, first compound 0.0316 µM); 37.7% (second compound 0.01 µM, first compound 0.1 µM); 31.7% (second compound 0.01 µM, first compound 0.316 µM); 37.7% (second compound 0.01 µM, first compound 1 µM). Besides, the viability, T/C is, setting by setting: (second compound 0.0316 µM, first compound 0.00316 µM) 65.5%; (second compound 0.0316 µM, first compound 0.01 µM) 53.1%; (second compound 0.0316 µM, first compound 0.0316 µM) 43.9%; (second compound 0.0316 µM, first compound 0.1 µM) 34.1%; (second compound 0.0316 µM, first compound 0.316 µM) 29.7%; (second compound 0.0316 µM, first compound 1 µM) 38.5%. Also, the viability, T/C reads like this: (second compound 0.1 µM, first compound 0.00316 µM) 53.7%; (second compound 0.1 µM, first compound 0.01 µM) 44.2%; under setting [4], 36.6%; under setting [5], 31.1%; under setting [6], 29.1%; under setting [7], 43.4%. The viability, T/C is, setting by setting: (second compound 0.316 µM, first compound 0.00316 µM) 46.4%; (second compound 0.316 µM, first compound 0.01 µM) 41.6%; under setting [8], 35.2%; under setting [9], 31.7%; under setting [10], 34.4%; under setting [11], 67.5%. Further, the viability, T/C is 53% (second compound 1 µM, first compound 0.00316 µM); 48.6% (second compound 1 µM, first compound 0.01 µM); 46.8% under setting [12]; 44.8% under setting [13]; 55.1% under setting [14]; 128% under setting [15].
For the compound `Cn1cnc2c(F)c(Nc3ccc(Br)cc3Cl)c(C(=O)NOCCO)cc21` + CC(C)NCC(C(=O)N1CCN(c2ncnc3c2C(C)CC3O)CC1)c1ccc(Cl)cc1, the IC50 was below 0.00949 µM under setting [1]; below 0.00949 µM under setting [2]; below 0.00949 µM under setting [3]; below 0.00949 µM under setting [16]; below 0.00949 µM under setting [17]. For the same compound, the viability, T/C was 43.2% (second compound 0.1 µM, first compound 0.00949 µM); 36.2% (second compound 0.1 µM, first compound 0.03 µM); 34.3% (second compound 0.1 µM, first compound 0.0949 µM); 27.8% (second compound 0.1 µM, first compound 0.3 µM); 23.4% (second compound 0.1 µM, first compound 0.949 µM); 13% (second compound 0.1 µM, first compound 3 µM). Moreover, the viability, T/C (second compound 0.316 µM, first compound 0.00949 µM) was 38%; the viability, T/C (second compound 0.316 µM, first compound 0.03 µM) was 31.8%; the viability, T/C (second compound 0.316 µM, first compound 0.0949 µM) was 29.5%; the viability, T/C (second compound 0.316 µM, first compound 0.3 µM) was 24.1%; the viability, T/C (second compound 0.316 µM, first compound 0.949 µM) was 20.4%; the viability, T/C (second compound 0.316 µM, first compound 3 µM) was 11.6%. In addition, the viability, T/C was 31.2% (second compound 1 µM, first compound 0.00949 µM); 28.2% (second compound 1 µM, first compound 0.03 µM); 24.8% (second compound 1 µM, first compound 0.0949 µM); 23% (second compound 1 µM, first compound 0.3 µM); 17.5% (second compound 1 µM, first compound 0.949 µM); 10.5% (second compound 1 µM, first compound 3 µM). Moreover, the viability, T/C was 25% (second compound 3.16 µM, first compound 0.00949 µM); 22.6% (second compound 3.16 µM, first compound 0.03 µM); 20.6% (second compound 3.16 µM, first compound 0.0949 µM); 18.4% (second compound 3.16 µM, first compound 0.3 µM); 14.5% (second compound 3.16 µM, first compound 0.949 µM); 7.58% (second compound 3.16 µM, first compound 3 µM). In addition, the viability, T/C is 18.9% (second compound 10 µM, first compound 0.00949 µM); 16.9% (second compound 10 µM, first compound 0.03 µM); 13.8% (second compound 10 µM, first compound 0.0949 µM); 13.1% (second compound 10 µM, first compound 0.3 µM); 8.94% (second compound 10 µM, first compound 0.949 µM); 4.82% (second compound 10 µM, first compound 3 µM).
`CC1(C)CCC(CN2CCN(c3ccc(C(=O)NS(=O)(=O)c4ccc(NCC5CCOCC5)c([N+](=O)[O-])c4)c(Oc4cnc5[nH]ccc5c4)c3)CC2)=C(c2ccc(Cl)cc2)C1` + CC(C)NCC(C(=O)N1CCN(c2ncnc3c2C(C)CC3O)CC1)c1ccc(Cl)cc1: the IC50 is 5.99 µM under setting [1]; 5.38 µM under setting [2]; 4.75 µM under setting [3]; 3.68 µM under setting [16]; below 0.0316 µM under setting [17]. Besides, the viability, T/C reads like this: under setting [4], 99%; under setting [5], 96.8%; under setting [6], 103%; under setting [7], 95.9%; (second compound 0.1 µM, first compound 3.16 µM) 96.9%; (second compound 0.1 µM, first compound 10 µM) 12.4%. Moreover, the viability, T/C runs as follows: under setting [8], 86.2%; under setting [9], 88.3%; under setting [10], 93.7%; under setting [11], 94.5%; (second compound 0.316 µM, first compound 3.16 µM) 86.1%; (second compound 0.316 µM, first compound 10 µM) 7.75%. Besides, the viability, T/C runs as follows: under setting [12], 75.9%; under setting [13], 79.4%; under setting [14], 75.4%; under setting [15], 77.7%; (second compound 1 µM, first compound 3.16 µM) 71.2%; (second compound 1 µM, first compound 10 µM) 10.9%. Further, the viability, T/C reads like this: (second compound 3.16 µM, first compound 0.0316 µM) 60.8%; (second compound 3.16 µM, first compound 0.1 µM) 57.2%; (second compound 3.16 µM, first compound 0.316 µM) 59.4%; (second compound 3.16 µM, first compound 1 µM) 60.1%; (second compound 3.16 µM, first compound 3.16 µM) 56.5%; (second compound 3.16 µM, first compound 10 µM) 7.09%. The viability, T/C reads like this: (second compound 10 µM, first compound 0.0316 µM) 39.8%; (second compound 10 µM, first compound 0.1 µM) 43%; (second compound 10 µM, first compound 0.316 µM) 40.5%; (second compound 10 µM, first compound 1 µM) 39.4%; (second compound 10 µM, first compound 3.16 µM) 36.4%; (second compound 10 µM, first compound 10 µM) 4.22%.
For the compound `CC(=O)c1c(C)c2cnc(Nc3ccc(N4CCNCC4)cn3)nc2n(C2CCCC2)c1=O`, the viability, T/C (compound 0.000949 µM) is 103% and 105%; the viability, T/C (compound 0.003 µM) is 88.5% and 88.2%; the viability, T/C (compound 0.00949 µM) was 74% and 79.3%; the viability, T/C (compound 0.03 µM) is 57.7% and 57.8%; the viability, T/C (compound 0.0949 µM) was 42.3% and 46%; the viability, T/C (compound 0.3 µM) was 38.7% and 38.9%. For the same compound, for the setting “curve of compound”, the IC50 was 0.0564 µM and 0.0701 µM.
Turning to `C=CCn1c(=O)c2cnc(Nc3ccc(N4CCN(C)CC4)cc3)nc2n1-c1cccc(C(C)(C)O)n1`, the viability, T/C by setting is: (compound 0.0316 µM) 99.7% and 119%; (compound 0.1 µM) 84.6% and 96.2%; (compound 0.316 µM) 34.6% and 37.5%; (compound 1 µM) 18.5% and 17.7%; (compound 3.16 µM) 16.1% and 15.1%; (compound 10 µM) 21.8% and 20.7%. Further, where the note is “curve of compound”, the IC50 is 0.221 µM and 0.246 µM.

The values above are taken from PubChem BioAssay AID2060328 (Molecular Pharmacology Branch, DTP, NCI, 2025).
